Four substances from patent publication US20240010590A1 (priority 2020, published 2024) can be followed below.

For test [1], the system named is BVDV. The test is described as follows: Single-detergent treatment of buffer containing HSA, BVDV inactivation. The format is cell-based, bovine viral diarrhea virus. The conditions noted are these: 14°C±1°C; for virus reduction factor (RF): single detergent 0.1%±0.01%, within 5 minutes; for inactivation kinetics compared with Triton X-100: FIG. 4A, single detergent 0.09%-0.11%.

The test system of test [2] is BVDV. Kind of test: Single-detergent treatment of IVIG-containing liquid, BVDV inactivation. The test is classed as cell-based, bovine viral diarrhea virus. The conditions noted are these: single detergent 0.1%±0.01%, 17°C±1°C, within 10 minutes.
Test [3] relates to BVDV. Kind of test: Single-detergent treatment of pdFVIII-containing liquid, BVDV inactivation. The format is cell-based, bovine viral diarrhea virus. The conditions noted are these: single detergent 0.1%±0.01%, 23°C±1°C, within 5 minutes.
A further test concerns PRV. The test is classed as cell-based, pseudorabies virus. The conditions noted are these: IVIG-containing liquid, 17°C±1°C.
The next test relates to X-MuLV. Kind of test: S/D treatment of HSA-containing liquid, X-MuLV inactivation. The test is classed as cell-based, xenotropic murine leukemia virus. The following applies: S/D mixture with PS80 and TnBP, 0.1% detergent. On the procedure: FIG. 2: Virus inactivation efficiency of low concentrations of 4-tert-octylbenzyl alcohol polyethoxylate in S/D treatment of human serum albumin (HSA)-containing liquid at 1° C.±1° C. A three-component mixture was used to give final concentrations of 0.08%-0.1% 4-tert-octylbenzyl alcohol polyethoxylate, 0.02%-0.03% Polysorbate 80, 0.02%-0.03% TnBP (side-by-side comparison with same concentration of Triton X-100). Virus inactivation over time is indicated by the virus reduction factor (RF) for two runs with X-MuLV (A and B, respectively). Virus inactivation of S/D treatment using 4-tert-octylbenzyl alcohol polyethoxylate was compared to virus inactivation of S/D treatment using Triton X-100 (“TX-100”). Filled symbols show values with remaining infectivity, non-filled symbols show reduction factors below the limit of detection.
FIG. 3: Virus inactivation efficiency of low concentrations of 4-tert-octylbenzyl alcohol polyethoxylate in S/D treatment of HSA-containing liquid at 19° C.±1° C. A three-component mixture was used to give final concentrations of 0.08%-0.1% 4-tert-octylbenzyl alcohol polyethoxylate, 0.02%-0.03% Polysorbate 80, 0.02%-0.03% TnBP (side-by-side comparison with same concentration of Triton X-100). Virus inactivation over time is indicated by the virus reduction factor (RF) for two runs with X-MuLV (A and B, respectively). Virus inactivation of S/D treatment using 4-tert-octylbenzyl alcohol polyethoxylate was compared to virus inactivation of S/D treatment using Triton X-100 (“TX-100”). Filled symbols show values with remaining infectivity, non-filled symbols show reduction factors below the limit of detection.
The experiments were performed as described for Example 3 of WO 2019/086463. However, for the S/D treatment an S/D mixture comprising 4-tert-octylbenzyl alcohol polyethoxylate was tested and compared to an S/D mixture comprising Triton X-100. The composition of the S/D mixture comprising Triton X-100 was prepared as described in Example 3 of WO 2019/086463. […]

Take “4-(1,1,3,3-tetramethylbutyl)phenol, ethoxylated [Triton X-100]”: the “virus reduction factor (RF)” value in the test on BVDV [1], in the test on BVDV [2] and with BVDV [3] was “around 5” each time.

Turning to “4-tert-octylbenzyl alcohol polyethoxylate”, the “inactivation kinetics compared with Triton X-100” value in the test on PRV (FIG. 1A, S/D treatment, 0.04%-0.06% detergent) is “identical inactivation kinetics”; in the test on BVDV [1] it was “same inactivation kinetics as Triton X-100”. The “virus reduction factor (RF)” value with PRV (S/D mixture with PS80 and TnBP, 0.05% w/w detergent, within 1-2 minutes) is “around 4”; in the test with X-MuLV (1°C±1°C, within 10 minutes) it was “over 2”; in the test on X-MuLV (19°C±1°C, within 10 minutes) it was “over 2”; in the test with X-MuLV (19°C±1°C, within 30 min) it was “around 4”; in the test on BVDV [1] it was “around 5”; with BVDV [2] it was “around 5”. Besides, in the test on BVDV [3], the “virus reduction factor (RF)” value is recorded as “around 5”.

“4-tert-octylcyclohexyl alcohol polyethoxylate [Triton X-100 reduced]”: the “inactivation kinetics compared with Triton X-100” value in the test with BVDV [1] was “same inactivation kinetics as Triton X-100”. Moreover, the “virus reduction factor (RF)” value in the test on BVDV [1], with BVDV [2] and in the test with BVDV [3] was “around 5” each time.

As to “n-hexadecyl alcohol polyethoxylate [Brij C10]”, the “virus reduction factor (RF)” value with BVDV [1] is recorded as “around 5”.
